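Following 48 hours of exposure in 96-well plates, responses at five concentrations were used to interpolate endpoints linearly. GI50 = concentration required for 50% inhibition of growth.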 Activity calls are given as the source filed them. Rule as the data show it: active = GI50 up to about 1.1 µM and inactive = higher.
Legend:
Assay in all cases: NCI tumour cell line growth inhibition, 48 h
HCT-15 = test system: HCT-15
LOX IMVI = test system: LOX IMVI
A498 = test system: A498
ACHN = test system: ACHN
M14 = test system: M14
HOP-62 = test system: HOP-62
Malme-3M = test system: Malme-3M
SNB-19 = test system: SNB-19
COLO 205 = test system: COLO 205
HL-60 = test system: HL-60
A549 = test system: A549
SK-MEL-28 = test system: SK-MEL-28
NCI-H226 = test system: NCI-H226
RXF 393 = test system: RXF 393
UO-31 = test system: UO-31
TK-10 = test system: TK-10
U-251 = test system: U-251
SR = test system: SR
OVCAR-4 = test system: OVCAR-4
SK-MEL-2 = test system: SK-MEL-2

SMILES	GI50 (HCT-15)	GI50 (LOX IMVI)	GI50 (A498)	GI50 (ACHN)	GI50 (M14)	GI50 (HOP-62)	GI50 (Malme-3M)	GI50 (SNB-19)	GI50 (COLO 205)	GI50 (HL-60)	GI50 (A549)	GI50 (SK-MEL-28)	GI50 (NCI-H226)	GI50 (RXF 393)	GI50 (UO-31)	GI50 (TK-10)	GI50 (U-251)	GI50 (SR)	GI50 (OVCAR-4)	GI50 (SK-MEL-2)
Cc1nc(O)c(O)c(CN2CCCCC2)n1	> 100 µM	> 100 µM (inactive)	> 100 µM (inactive)	> 100 µM (inactive)	> 100 µM (inactive)	> 100 µM (inactive)	> 100 µM (inactive)	> 100 µM (inactive)	> 100 µM (inactive)	42.7 µM (inactive)	> 100 µM (inactive)	> 100 µM (inactive)	> 100 µM (inactive)	> 100 µM (inactive)	> 100 µM (inactive)	> 100 µM (inactive)	> 100 µM (inactive)	> 100 µM (inactive)	> 100 µM (inactive)	> 100 µM (inactive)
O=C(NNC(=S)Nc1ccc(Cl)cc1)C12CC3CC(CC(C3)C1)C2	3.18 µM	2.53 µM (inactive)	4.82 µM (inactive)	4.19 µM (inactive)	7.74 µM (inactive)	11.2 µM (inactive)	7.98 µM (inactive)	5.15 µM (inactive)	3.32 µM (inactive)	1.68 µM (inactive)	3.84 µM (inactive)	14.8 µM (inactive)	10.7 µM (inactive)	14.7 µM (inactive)	1.38 µM (inactive)	16.5 µM (inactive)	3.6 µM (inactive)	1.04 µM (active)	4.92 µM (inactive)	14.3 µM (inactive)
CC[C@@]1(O)C(=O)OCc2c1cc1n(c2=O)Cc2c-1nc1ccccc1c2/C=N\NC(=O)C[n+]1ccccc1	2.9 µM	0.218 µM (active)	2.78 µM (inactive)	0.0531 µM (active)	0.457 µM (active)	0.164 µM (active)	3.95 µM (inactive)	0.267 µM (active)	12.1 µM (inactive)	0.225 µM (active)	0.513 µM (active)	3.29 µM (inactive)	0.991 µM (active)	0.76 µM (active)	0.29 µM (active)	20.5 µM (inactive)	0.261 µM (active)	0.0411 µM (active)	8.57 µM (inactive)	37.6 µM (inactive)
C#CC(C)(C)Oc1cc(O)c2c(=O)c3ccccc3n(C)c2c1	> 100 µM	19.3 µM (inactive)	> 100 µM (inactive)	86.1 µM (inactive)	> 100 µM (inactive)	94 µM (inactive)	> 100 µM (inactive)	> 100 µM (inactive)	> 100 µM (inactive)	> 100 µM (inactive)	> 100 µM (inactive)	> 100 µM (inactive)	> 100 µM (inactive)	> 100 µM (inactive)	> 100 µM (inactive)	> 100 µM (inactive)	42.1 µM (inactive)	17.3 µM (inactive)	> 100 µM (inactive)	> 100 µM (inactive)
O=C(NCCCCCCCCCCCCNC(=O)c1cccc2ccccc12)c1cccc2ccccc12	> 100 µM	> 84.9 µM (inactive)	> 47.9 µM (inactive)	> 64 µM (inactive)	> 100 µM (inactive)	2.98 µM (inactive)	> 92.3 µM (inactive)	45.6 µM (inactive)	> 100 µM (inactive)	31.3 µM (inactive)	> 68.5 µM (inactive)	> 100 µM (inactive)	> 49.9 µM (inactive)	> 100 µM (inactive)	> 42.7 µM (inactive)	> 52.7 µM (inactive)	> 36.7 µM (inactive)	47 µM (inactive)	6.24 µM (inactive)	> 58.1 µM (inactive)
Cc1c(O)c(OC2OC(CO)C(O)C(O)C2O)cc2c1C=C[C@@H]1[C@@]2(C)C(=O)C[C@]2(C)[C@@H]([C@@](C)(O)C(O)/C=C/C(C)(C)O)[C@H](O)C[C@@]12C (stereo not given in full)	> 100 µM	> 100 µM (inactive)	> 100 µM (inactive)	> 100 µM (inactive)	> 100 µM (inactive)	> 100 µM (inactive)	> 100 µM (inactive)	> 100 µM (inactive)	> 100 µM (inactive)	> 100 µM (inactive)	> 100 µM (inactive)	> 100 µM (inactive)	> 100 µM (inactive)	> 100 µM (inactive)	> 100 µM (inactive)	> 100 µM (inactive)	> 100 µM (inactive)	> 100 µM (inactive)	> 100 µM (inactive)	> 100 µM (inactive)
Cc1ccc2c(c1)Nc1cc(C(F)(F)F)ccc1[PH]2=O (stereo not given)	43.6 µM	26.1 µM (inactive)	9.53 µM (inactive)	16.6 µM (inactive)	65.2 µM (inactive)	29.1 µM (inactive)	31.8 µM (inactive)	18.9 µM (inactive)	16.1 µM (inactive)	29.3 µM (inactive)	30.4 µM (inactive)	78.5 µM (inactive)	21.3 µM (inactive)	23.2 µM (inactive)	0.225 µM (active)	57.9 µM (inactive)	27.2 µM (inactive)	37.4 µM (inactive)	11.6 µM (inactive)	31 µM (inactive)
COc1cccc2c1C(=O)c1c(O)c3c(c(O)c1C2=O)C[C@@](O)(/C(C)=N\O)C[C@@H]3OC1CC(N)C(O)C(C)O1 (stereo not given in full)	28.7 µM	0.388 µM (active)	0.834 µM (active)	1.9 µM (inactive)	2.28 µM (inactive)	1.24 µM (inactive)	0.755 µM (active)	0.78 µM (active)	0.955 µM (active)	0.218 µM (active)	0.968 µM (active)	1.64 µM (inactive)	1.81 µM (inactive)	1.41 µM (inactive)	10 µM (inactive)	3.24 µM (inactive)	0.766 µM (active)	0.0615 µM (active)	4.46 µM (inactive)	1.1 µM (active)
CC(C)C(Sc1nc(N)nc2nc[nH]c12)C(=O)O (stereo not given)	> 100 µM	> 100 µM (inactive)	> 100 µM (inactive)	> 100 µM (inactive)	> 100 µM (inactive)	> 100 µM (inactive)	> 100 µM (inactive)	> 100 µM (inactive)	> 100 µM (inactive)	> 100 µM (inactive)	> 100 µM (inactive)	> 100 µM (inactive)	> 100 µM (inactive)	> 100 µM (inactive)	> 100 µM (inactive)	> 100 µM (inactive)	> 100 µM (inactive)	> 100 µM (inactive)	> 100 µM (inactive)	> 100 µM (inactive)
Nc1c(S(=O)(=O)O)cc(Nc2cccc(S(N)(=O)=O)c2)c2c1C(=O)c1ccccc1C2=O	84.5 µM	43.8 µM (inactive)	> 100 µM (inactive)	> 100 µM (inactive)	50.6 µM (inactive)	23.4 µM (inactive)	36.5 µM (inactive)	> 100 µM (inactive)	38.1 µM (inactive)	> 100 µM (inactive)	> 100 µM (inactive)	> 100 µM (inactive)	> 100 µM (inactive)	74.3 µM (inactive)	97.3 µM (inactive)	> 100 µM (inactive)	46.5 µM (inactive)	> 100 µM (inactive)	> 100 µM (inactive)	75.7 µM (inactive)

Reference: ChEMBL document CHEMBL1201862, “PubChem BioAssay data set” (2004)
